Results reported in paper PMC12080312 (2025).

Experiments:
[1] = test system: N1MA1a (DNA, aptamer) GACGACACATAATTGTTGATCCACTGTTTATTAGGTGTCGTC; test: ITC; details: 500 mM Na+, 20 mM Mg2+; 50 mM Tris, pH 7.6, 25 °C; abstract prints 0.75 ± 0.04
[2] = test system: N1MA2a (DNA, aptamer) GACGACAAGGTTGCTGGTCTGGTACAGAGATAGTTCGTCGTC; test: ITC; details: 500 mM Na+, 20 mM Mg2+; 50 mM Tris, pH 7.6, 25 °C
[3] = test system: AdeApt (classical adenosine aptamer) (DNA, aptamer) ACCTGGGGGAGTATTGCGGAGGAAGGT; test: ThT fluorescence displacement; details: 500 mM Na+, 20 mM Mg2+; Kd could not be fitted; 50 mM Tris, pH 7.6; ThT tracer

Kd [1]: 0.75 ± 0.07 µM
Kd [2]: 7.3 ± 7.5 µM
binding [3]: weak
SMILES: Cn1cnc2c(ncn2[C@@H]2O[C@H](CO)[C@@H](O)[C@H]2O)c1=N
